The source made the active and inactive calls.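 How the source made its calls: active means fitted curve reaches 200% activation at or below the highest valid dose tested for that compound; inconclusive means flat fit between 30 and 70% activation, or unreliable fit; inactive means the rest.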
Target: Endoplasmic reticulum aminopeptidase 2 (Homo sapiens) (UniProt Q6P179)
Test: enhanced ERAP2 Arg-AMC hydrolysis – biochemical, fluorescence plate reader, cherry-picked samples, selectivity assay for selective ERAP1 modulator project, dose response (AID 743319)
Settings: recombinant ERAP2, Arg-AMC cleavage fluorescence, 1 h

Chain of Endoplasmic reticulum aminopeptidase 2 (Homo sapiens) (Q6P179 whole entry, looked up): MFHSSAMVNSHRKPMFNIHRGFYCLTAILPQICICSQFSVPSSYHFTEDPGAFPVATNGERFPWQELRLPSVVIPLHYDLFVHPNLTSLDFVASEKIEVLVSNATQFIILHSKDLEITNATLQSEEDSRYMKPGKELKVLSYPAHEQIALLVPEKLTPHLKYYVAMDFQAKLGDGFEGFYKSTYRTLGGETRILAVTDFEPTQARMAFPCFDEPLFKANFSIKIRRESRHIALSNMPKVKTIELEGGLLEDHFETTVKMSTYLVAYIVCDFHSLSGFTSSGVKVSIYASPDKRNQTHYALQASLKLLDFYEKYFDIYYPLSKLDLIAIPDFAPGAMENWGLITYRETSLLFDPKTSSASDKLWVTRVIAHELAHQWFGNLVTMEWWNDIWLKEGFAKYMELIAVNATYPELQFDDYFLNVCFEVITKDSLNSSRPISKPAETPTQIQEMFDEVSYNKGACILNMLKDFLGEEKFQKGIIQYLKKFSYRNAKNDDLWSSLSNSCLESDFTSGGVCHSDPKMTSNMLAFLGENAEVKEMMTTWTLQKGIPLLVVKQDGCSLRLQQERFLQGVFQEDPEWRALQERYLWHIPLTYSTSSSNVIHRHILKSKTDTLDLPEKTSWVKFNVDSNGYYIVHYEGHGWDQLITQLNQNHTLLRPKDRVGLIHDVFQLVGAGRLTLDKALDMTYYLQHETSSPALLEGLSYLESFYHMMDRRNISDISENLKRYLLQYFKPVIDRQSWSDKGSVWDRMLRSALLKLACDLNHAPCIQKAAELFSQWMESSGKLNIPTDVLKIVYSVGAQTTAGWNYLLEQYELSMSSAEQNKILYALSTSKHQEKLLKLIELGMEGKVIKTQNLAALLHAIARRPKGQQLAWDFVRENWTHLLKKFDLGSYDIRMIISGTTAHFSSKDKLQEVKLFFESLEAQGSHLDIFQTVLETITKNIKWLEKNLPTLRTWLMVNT

| SMILES | AC200 |
| --- | --- |
| O=S(=O)(O)c1ccc(N2N=C(c3ccccc3)CC2c2ccccc2)cc1 (configuration not stated) | 2050 nM |
| Cc1cc(=O)oc2c(CN3CCCCC3)c(O)ccc12 | 1920 nM |
| CN1[C@@H]2Cn3c(ccc(/C=C/c4ccccc4)c3=O)[C@H]1[C@@H](C(=O)NC1CCCC1)[C@@H]2CO | 1900 nM |
| CC(=O)N1[C@@H]2c3ccc(/C=C/c4ccccc4)c(=O)n3C[C@H]1[C@H](CO)[C@H]2C(=O)N(C)C | 1570 nM |
| CCN1CCN(Cc2c(O)ccc3c(C)cc(=O)oc23)CC1 | 3230 nM |
| CCN(CC)c1ccc2c(C)c(Cl)c(=O)oc2c1 | 1420 nM |
| CN1CCCC1CCNc1ccc2c(=O)c3ccccc3oc2c1 (configuration not stated) | 1140 nM |
| COc1ccc(-c2cc3ccc(O)cc3oc2=O)cc1OC | 1880 nM |
| CCc1c(C)c2cc(Cl)c(O)c(CN(C)C)c2oc1=O | 803 nM |
| CCc1cc(=O)oc2c(CN3CCN(C)CC3)c(O)ccc12 | 3170 nM |
| CC(=O)N1[C@@H]2Cn3c(ccc(/C=C/c4ccccc4)c3=O)[C@H]1[C@@H](C(=O)NCC1CC1)[C@@H]2CO | 2500 nM |
| CCNC(=O)[C@H]1[C@H](CO)[C@H]2Cn3c(ccc(/C=C/c4ccccc4)c3=O)[C@@H]1N2C(=O)C1CCCC1 | 1830 nM |
| O=C(NCC1CC1)[C@H]1[C@H](CO)[C@H]2Cn3c(ccc(/C=C/c4ccccc4)c3=O)[C@@H]1N2C(=O)C1CC1 | 1770 nM |
| Cc1cc(=O)oc2cc(OCC(=O)N3CCN(C(C)c4ccccc4)CC3)c(Cl)cc12 (configuration not stated) | 3960 nM |
| Cc1c(O)ccc2cc(S(=O)(=O)c3ccccc3)c(=O)oc12 | 860 nM |
| CCN(CC)Cc1c(O)ccc2cc(-c3nc4ccccc4n3C)c(=O)oc12 | 436 nM |
| CC(=O)Oc1cc2oc(=O)cc(C)c2cc1Cl | 1100 nM |

| SMILES | AC200 |
| --- | --- |
| COCCCn1c(C(=O)N2CCOCC2)cc2c(=O)n3ccccc3nc21 | 6360 nM |
| O=c1ccc2cc(OC3O[C@H](CO)[C@@H](O)[C@H](O)[C@H]3O)c(O)cc2o1 (some centres not stated) | 857 nM |
| COC(=O)Cc1c(C)c2ccc(O)c(CNCc3ccc(OC)c(OC)c3)c2oc1=O | 1010 nM |
| Cc1c(CC(=O)N2CCN(C(=O)C3COc4ccccc4O3)CC2)c(=O)oc2cc(O)c(Cl)cc12 (configuration not stated) | 1520 nM |
| Cc1cc(=O)oc2cc(NS(=O)(=O)c3ccc(F)cc3)ccc12 | 2110 nM |
| Cc1ccc2nc3c(cc(C(=O)NCc4ccccc4)c(=N)n3CCCn3ccnc3)c(=O)n2c1 | > 11000 nM (inactive) |
| Cc1c(C)c2ccc(O)c(CN3CCN(C)CC3)c2oc1=O | 3430 nM |
| CCCN1[C@@H]2c3ccc(/C=C/c4ccccc4)c(=O)n3C[C@H]1[C@H](CO)[C@H]2C(=O)NCc1ccccn1 | 2190 nM |
| COC(=O)[C@@H]1[C@@H](CO)[C@@H]2Cn3c(ccc(/C=C/c4ccccc4)c3=O)[C@H]1N2C(=O)C1CCC1 | 2170 nM |
| CCC(=O)N1[C@@H]2c3ccc(/C=C/c4ccccc4)c(=O)n3C[C@H]1[C@H](CO)[C@H]2C(=O)N(C)C | 1690 nM |
| COc1ccc(C2=NN(c3ccc(C(=O)O)cc3)C(c3ccc(OC)c(OC)c3)C2)cc1 (configuration not stated) | 1580 nM |
| Cc1ccc(S(=O)(=O)c2cc3ccc(O)cc3oc2=O)cc1C | 721 nM |
| COc1cccc(CN(C)Cc2cc(=O)oc3cc(O)c(Cl)cc23)c1 | 1620 nM |
| Cc1c(O)ccc2c(CN3CCN(Cc4ccccc4)CC3)cc(=O)oc12 | 5190 nM |
| CCc1cc(=O)oc2c(CNCc3c(F)cccc3Cl)c(O)ccc12 | 1870 nM |
| O=c1ccc2cc(O[C@@H]3O[C@H](CO)[C@@H](O)[C@H](O)[C@H]3O)c(O)cc2o1 | 687 nM |
| O=c1cc(CN2CCOCC2)c2cc(Cl)c(O)cc2o1 | 2510 nM |

Same assay, conditions: recombinant ERAP2, Arg-AMC cleavage fluorescence, 1 h; at 2.6 µM (top of the series)

| SMILES | activation |
| --- | --- |
| C[C@@H]1CCCCO[C@@H](CN(C)C(=O)CCC(F)(F)F)[C@@H](C)CN([C@@H](C)CO)C(=O)c2cc(NS(=O)(=O)c3ccccc3)ccc2O1 | 14.4% (inactive) |

Same assay, conditions: recombinant ERAP2, Arg-AMC cleavage fluorescence, 1 h; at 5.6 µM (top of the series)

| SMILES | activation |
| --- | --- |
| COc1ccc(S(=O)(=O)N(C)C[C@@H]2Oc3ncccc3C(=O)N([C@H](C)CO)C[C@@H]2C)cc1 | 11.3% (inactive) |
| C[C@@H]1CCCCO[C@@H](CN(C)Cc2ccccc2)[C@@H](C)CN([C@H](C)CO)C(=O)c2cc(NS(=O)(=O)c3cccs3)ccc2O1 | 12.1% (inactive) |
| C[C@@H]1CCCCO[C@@H](CN(C)Cc2ccc3c(c2)OCO3)[C@@H](C)CN([C@@H](C)CO)C(=O)c2cc(NS(=O)(=O)c3ccccc3)ccc2O1 | 12.7% (inactive) |

Same assay, conditions: recombinant ERAP2, Arg-AMC cleavage fluorescence, 1 h; at 10 µM (top of the series)

| SMILES | activation |
| --- | --- |
| Cc1noc(C)c1S(=O)(=O)N(C)C[C@@H]1OCCCC[C@@H](C)Oc2ccc(NS(=O)(=O)c3cccs3)cc2C(=O)N([C@@H](C)CO)C[C@@H]1C | 21.7% (inactive) |
| Cc1noc(C)c1S(=O)(=O)Nc1ccc2c(c1)C(=O)N([C@H](C)CO)C[C@H](C)[C@H](CN(C)Cc1ccc3c(c1)OCO3)OCCCC[C@@H](C)O2 | 11.2% (inactive) |

Same assay, conditions: recombinant ERAP2, Arg-AMC cleavage fluorescence, 1 h; at 11 µM (top of the series)

| SMILES | activation |
| --- | --- |
| COC(=O)[C@H]1[C@H](CO)[C@H]2Cn3c(ccc(-c4ccncc4)c3=O)[C@H]2N1Cc1ccccc1F | 15.2% (inactive) |
| C[C@@H]1CCCCO[C@@H](CN(C)CC2CC2)[C@@H](C)CN([C@H](C)CO)C(=O)c2cc(NS(=O)(=O)c3ccc(Cl)cc3)ccc2O1 | 18.4% (inactive) |
| C[C@H](CO)N1C[C@H](C)[C@@H](CN(C)CC2CC2)Oc2c(NC(=O)Nc3ccc(C(F)(F)F)cc3)cccc2C1=O | -20.2% (inactive) |
| C[C@@H]1CCCCO[C@@H](CN(C)Cc2ccc(C(=O)O)cc2)[C@@H](C)CN([C@H](C)CO)C(=O)c2cc(NC(=O)Nc3cccc4ccccc34)ccc2O1 | 5.34% (inactive) |
| C[C@H]1CN([C@@H](C)CO)C(=O)c2cccc(NC(=O)Nc3ccc(F)cc3)c2O[C@@H]1CN(C)C(=O)Nc1ccc2c(c1)OCO2 | 18.2% (inactive) |
| COc1ccc(CN(C)C[C@H]2OCCCC[C@@H](C)Oc3ccc(NS(=O)(=O)c4cccs4)cc3C(=O)N([C@@H](C)CO)C[C@@H]2C)cc1 | 10.1% (inactive) |
| CCCN(C)C[C@@H]1OCCCC[C@@H](C)Oc2ccc(NS(=O)(=O)c3ccccc3)cc2C(=O)N([C@H](C)CO)C[C@@H]1C | 16% (inactive) |
| C[C@@H]1CCCCO[C@@H](CN(C)Cc2ccccc2)[C@H](C)CN([C@H](C)CO)C(=O)c2cc(NS(=O)(=O)c3cccs3)ccc2O1 | 6.39% (inactive) |
| CCCN(C)C[C@@H]1OCCCC[C@@H](C)Oc2ccc(NS(=O)(=O)c3ccc(F)cc3)cc2C(=O)N([C@H](C)CO)C[C@@H]1C | 10.6% (inactive) |
| CCCN(C)C[C@@H]1OCCCC[C@@H](C)Oc2ccc(NS(=O)(=O)c3cccs3)cc2C(=O)N([C@H](C)CO)C[C@@H]1C | 11% (inactive) |
| O=C(O)c1cccc(NC(=O)c2ccccc2NC(=O)c2cccc([N+](=O)[O-])c2)c1 | 15.7% (inactive) |
| COc1ccc(CN(C)C[C@@H]2OCCCC[C@H](C)Oc3ccc(NS(=O)(=O)c4cccs4)cc3C(=O)N([C@H](C)CO)C[C@@H]2C)cc1 | 10.2% (inactive) |
| O=C(C[C@H]1CC[C@H]2[C@@H](COC[C@@H](O)CN2C(=O)Nc2cccc(Cl)c2)O1)N1CCCCC1 | 8.71% (inactive) |
| C[C@@H]1CCCCO[C@@H](CN(C)Cc2ccc(C(=O)O)cc2)[C@H](C)CN([C@@H](C)CO)C(=O)c2cc(NS(=O)(=O)c3ccc(Cl)cc3)ccc2O1 | 24.2% (inactive) |
| COc1ccc(CN(C)C[C@@H]2OCCCC[C@@H](C)Oc3ccc(NS(=O)(=O)c4cccs4)cc3C(=O)N([C@H](C)CO)C[C@@H]2C)cc1 | 10.9% (inactive) |
| COc1ccc(NC(=O)Nc2ccc3c(c2)C(=O)N([C@H](C)CO)C[C@@H](C)[C@@H](CN(C)Cc2ccc(C(=O)O)cc2)OCCCC[C@@H](C)O3)cc1 | 2.96% (inactive) |

| SMILES | activation |
| --- | --- |
| Cc1ccccc1-c1ccc2c(c1)O[C@@H](CN(C)Cc1ccc(C(=O)O)cc1)[C@@H](C)CN([C@@H](C)CO)S2(=O)=O | 0.523% (inactive) |
| COc1ccc2c3c([nH]c2c1)[C@H](CO)N(Cc1cc(F)ccc1F)CC31CN(C)C1 | 11.2% (inactive) |
| C[C@@H]1CCCCO[C@H](CN(C)Cc2ccc(C(=O)O)cc2)[C@H](C)CN([C@@H](C)CO)C(=O)c2cc(NC(=O)Nc3ccc(C(F)(F)F)cc3)ccc2O1 | 11.3% (inactive) |
| C[C@@H]1CCCCO[C@H](CN(C)C)[C@H](C)CN([C@H](C)CO)C(=O)c2cc(NS(=O)(=O)c3ccc(Cl)cc3)ccc2O1 | 16.7% (inactive) |
| CCCN(C)C[C@@H]1OCCCC[C@H](C)Oc2ccc(NC(=O)Nc3ccc(F)cc3)cc2C(=O)N([C@H](C)CO)C[C@@H]1C | 10.8% (inactive) |
| Cc1noc(C)c1NC(=O)N(C)C[C@@H]1Oc2c(NC(=O)Nc3ccccc3)cccc2C(=O)N([C@H](C)CO)C[C@@H]1C | 10.6% (inactive) |
| C[C@@H]1CCCCO[C@@H](CN(C)Cc2ccc3c(c2)OCO3)[C@@H](C)CN([C@H](C)CO)C(=O)c2cc(NS(=O)(=O)c3cccs3)ccc2O1 | 1.03% (inactive) |
| CCCNC(=O)C[C@H]1CC[C@@H]2[C@H](COC[C@H](O)CN2C(=O)Nc2cccc(Cl)c2)O1 | 19.4% (inactive) |
| O=C(O)c1ccccc1NS(=O)(=O)c1cccc(-n2sc3ccccc3c2=O)c1 | 3.47% (inactive) |
| Cc1cc(=O)oc2c(CN3CCN(C)CC3)c(O)c(Cl)cc12 | 12% (inactive) |
| C[C@@H]1CCCCO[C@H](CN(C)Cc2ccccc2)[C@H](C)CN([C@H](C)CO)C(=O)c2cc(NS(=O)(=O)c3ccccc3)ccc2O1 | 22.4% (inactive) |
| C[C@@H]1CCCCO[C@@H](CN(C)CC2CC2)[C@@H](C)CN([C@H](C)CO)C(=O)c2cc(NS(=O)(=O)c3cccs3)ccc2O1 | 14.7% (inactive) |
| O=C(Nc1ccc(C(F)(F)F)cc1)N1[C@@H]2CNC[C@H]1C2c1ccc(-c2ccncc2)cc1 (some centres not stated) | 1.51% (inactive) |
| Cc1noc(C)c1S(=O)(=O)Nc1ccc2c(c1)C(=O)N([C@H](C)CO)C[C@@H](C)[C@@H](CN(C)CC1CCCCC1)OCCCC[C@@H](C)O2 | 1.44% (inactive) |
| C[C@H](CO)N1C[C@H](C)[C@H](CN(C)Cc2ccncc2)Oc2c(NC(=O)Nc3ccc(C(F)(F)F)cc3)cccc2C1=O | 4.68% (inactive) |
| C[C@@H]1CCCCO[C@@H](CN(C)C)[C@@H](C)CN([C@@H](C)CO)C(=O)c2cc(NS(=O)(=O)c3ccc(Cl)cc3)ccc2O1 | 2.17% (inactive) |

— PubChem BioAssay AID743319 (Broad Institute, 2014)
